Results from patent US7521396B2, “Substituted (thioxo)carbonylaminophenyluracils” (Bayer CropScience AG, priority 2002, dated 2009).
Where two headings read alike, the source gives them in different places. Marks after values point to notes of the source that are not given here.

What was measured:
[1] = logP by HPLC on reversed-phase column (C 18), EEC Directive 79/831 Annex V.A8; format: physicochemical
weeds = assay: Post-emergence test (Example B), damage to weeds; format: in vivo; conditions: test plants of 5-15 cm sprayed, rated after three weeks
Method: To produce a suitable preparation of active compound, 1 part by weight of active compound is mixed with the stated amount of solvent, the stated amount of emulsifier is added and the concentrate is diluted with water to the desired concentration.
Test plants of a height of 5-15 cm are sprayed with the preparation of active compound such that the particular amounts of active compound desired are applied per unit area. The concentration of the spray liquor is chosen such that the particular amounts of active compound desired are applied in 1000 l of water/ha.
After three weeks, the degree of damage to the plants is rated in % damage in comparison to the development of the untreated control.
The figures denote: • 0%=no effect (like untreated control) • 100%=total destruction

[2] = a) acidic range: 0.1% aqueous phosphoric acid, acetonitrile gradient, 43° C.

Structure (SMILES): CCOC(=O)C1CCCN(C(=O)Nc2cc(-n3c(=O)cc(C(F)(F)F)n(C)c3=O)c(F)cc2Br)C1 (stereo not drawn) [Example 1, ethyl 1-[2-bromo-4-fluoro-5-(3-methyl-2,6-dioxo-4-trifluoromethyl-3,6-dihydro-2H-pyrimidin-1-yl)phenylcarbamoyl]piperidine-3-carboxylate]
- chromatographic logP ([1]; reversed-phase C18 HPLC column, pH 2): 2.98

Structure (SMILES): Cn1c(C(F)(F)F)cc(=O)n(-c2cc(NC(=O)SC3=NCCS3)c(Cl)cc2F)c1=O [Example 11]
- logP [1]: logP = 3.50^a)

Structure (SMILES): CCOC(=O)C(C)SC(=O)Nc1cc(-n2c(=O)cc(C(F)(F)F)n(C)c2=O)c(F)cc1Cl (stereo not drawn) [Example 12]
- logP [1]: logP = 3.11^a)

Structure (SMILES): CCOC(=O)CSC(=O)Nc1cc(-n2c(=O)cc(C(F)(F)F)n(C)c2=O)c(F)cc1Cl [Example 13]
- logP [1]: logP = 2.80^a)

Structure (SMILES): COC(=O)CSC(=O)Nc1cc(-n2c(=O)cc(C(F)(F)F)n(C)c2=O)c(F)cc1Cl [Example 14]
- logP [1]: logP = 2.55^a)

Structure (SMILES): Cn1c(C(F)(F)F)cc(=O)n(-c2cc(NC(=O)NCCC#N)c(Cl)cc2F)c1=O [Example 15]
- logP [1, 2]: logP = 2.06^a)

Structure (SMILES): Cn1c(C(F)(F)F)cc(=O)n(-c2cc(NC(=O)SC3=NCCS3)c(Br)cc2F)c1=O [Example 16]
- logP [1]: logP = 3.53^a)

Structure (SMILES): CCOC(=O)C(C)SC(=O)Nc1cc(-n2c(=O)cc(C(F)(F)F)n(C)c2=O)c(F)cc1Br (stereo not drawn) [Example 17]
- logP [1]: logP = 3.15^a)

Structure (SMILES): CCOC(=O)CSC(=O)Nc1cc(-n2c(=O)cc(C(F)(F)F)n(C)c2=O)c(F)cc1Br [Example 18]
- logP [1]: logP = 2.90^a)

Structure (SMILES): COC(=O)CSC(=O)Nc1cc(-n2c(=O)cc(C(F)(F)F)n(C)c2=O)c(F)cc1Br [Example 19]
- logP [1]: logP = 2.59^a)

Structure (SMILES): COC(=O)[C@@H]1CCCN1C(=O)Nc1cc(-n2c(=O)cc(C(F)(F)F)n(C)c2=O)c(F)cc1Br [Example 33]
- logP [1]: logP = 2.52^a)
- activity against weeds (degree of damage) (weeds): strong activity

Structure (SMILES): COC(=O)[C@@H]1CCCN1C(=O)Nc1cc(-n2c(=O)cc(C(F)(F)F)n(C)c2=O)c(F)cc1Cl [Example 34]
- logP [1]: logP = 2.46^a)
- activity against weeds (degree of damage) (weeds): strong activity

Structure (SMILES): CCOC(=O)C1CCN(C(=O)Nc2cc(-n3c(=O)cc(C(F)(F)F)n(C)c3=O)c(F)cc2Br)CC1 [Example 36]
- logP [1]: logP = 2.88^a)
- activity against weeds (degree of damage) (weeds): strong activity

Structure (SMILES): Cn1c(C(F)(F)F)cc(=O)n(-c2cc(NC(=O)N3CCOCC3)c(Br)cc2F)c1=O [Example 41]
- logP [1]: logP = 2.16^a)
- activity against weeds (degree of damage) (weeds): strong activity

Structure (SMILES): CCOC(=O)C1CCN(C(=O)Nc2cc(-n3c(=O)cc(C(F)(F)F)n(C)c3=O)c(F)cc2Cl)CC1 [Example 42]
- logP [1]: logP = 2.84^a)
- activity against weeds (degree of damage) (weeds): strong activity

Structure (SMILES): CCOC(=O)C1CCCN(C(=O)Nc2cc(-n3c(=O)cc(C(F)(F)F)n(C)c3=O)c(F)cc2Cl)C1 (stereo not drawn) [Example 43]
- logP [1]: logP = 2.93^a)

Structure (SMILES): CN1CCN(C(=O)Nc2cc(-n3c(=O)cc(C(F)(F)F)n(C)c3=O)c(F)cc2Cl)C1=O [Example 51]
- logP [1]: logP = 2.52^a)

Structure (SMILES): CCN1CCN(C(=O)Nc2cc(-n3c(=O)cc(C(F)(F)F)n(C)c3=O)c(F)cc2Cl)C1=O [Example 53]
- logP [1]: logP = 2 2.81^a)

Structure (SMILES): CN1CCCN(C(=O)Nc2cc(-n3c(=O)cc(C(F)(F)F)n(C)c3=O)c(F)cc2Cl)C1=O [Example 56]
- logP [1]: logP = 2.76^a)

Structure (SMILES): Cn1c(C(F)(F)F)cc(=O)n(-c2cc(NC(=O)N3CCCCO3)c(Cl)cc2F)c1=O [Example 62]
- logP [1]: logP = 2.89^a)

Structure (SMILES): Cn1c(C(F)(F)F)cc(=O)n(-c2cc(NC(=O)N3CCCCO3)c(Br)cc2F)c1=O [Example 63]
- logP [1]: logP = 2.96^a)

Structure (SMILES): CCON(C)C(=O)Nc1cc(-n2c(=O)cc(C(F)(F)F)n(C)c2=O)c(F)cc1Cl [Example 68]
- logP [1]: logP = 2.99^a)

Structure (SMILES): CCON(C)C(=O)Nc1cc(-n2c(=O)cc(C(F)(F)F)n(C)c2=O)c(F)cc1Br [Example 69]
- logP [1]: logP = 3.06^a)

Structure (SMILES): CCON(CC)C(=O)Nc1cc(-n2c(=O)cc(C(F)(F)F)n(C)c2=O)c(F)cc1Cl [Example 71]
- logP [1]: logP = 3.35^a)

Structure (SMILES): CCON(CC)C(=O)Nc1cc(-n2c(=O)cc(C(F)(F)F)n(C)c2=O)c(F)cc1Br [Example 72]
- logP [1]: logP = 3.41^a)

Structure (SMILES): CCN(OC)C(=O)Nc1cc(-n2c(=O)cc(C(F)(F)F)n(C)c2=O)c(F)cc1Cl [Example 74]
- logP [1]: logP = 2.93^a)

Structure (SMILES): CCN(OC)C(=O)Nc1cc(-n2c(=O)cc(C(F)(F)F)n(C)c2=O)c(F)cc1Br [Example 75]
- logP [1]: logP = 3.01^a)

Structure (SMILES): CON(C)C(=O)N(C)c1cc(-n2c(=O)cc(C(F)(F)F)n(C)c2=O)c(F)cc1Cl [Example 77]
- logP [1]: logP = 2.53^a)

Structure (SMILES): Cn1c(C(F)(F)F)cc(=O)n(-c2cc(NC(=O)N3CCC4(CC3)OCCO4)c(Cl)cc2F)c1=O [Example 84]
- logP [1]: logP = 2.29^a)

Structure (SMILES): Cn1c(C(F)(F)F)cc(=O)n(-c2cc(NC(=O)N3CCC4(CC3)OCCO4)c(Br)cc2F)c1=O [Example 85]
- logP [1]: logP = 2.35^a)

Structure (SMILES): Cn1c(C(F)(F)F)cc(=O)n(-c2cc(NC(=O)N3CCC4(CC3)OCCCO4)c(Cl)cc2F)c1=O [Example 86]
- logP [1]: logP = 2.29^a)

Structure (SMILES): Cn1c(C(F)(F)F)cc(=O)n(-c2cc(NC(=O)N3CCC4(CC3)OCCCO4)c(Br)cc2F)c1=O [Example 87]
- logP [1]: logP = 2.35^a)

Structure (SMILES): Cn1c(C(F)(F)F)cc(=O)n(-c2cc(NC(=O)N3CCC(=O)CC3)c(Cl)cc2F)c1=O [Example 92]
- logP [1, 2]: logP = 1.93^a)

Structure (SMILES): Cn1c(C(F)(F)F)cc(=O)n(-c2cc(NC(=O)N3CCC(=O)CC3)c(Br)cc2F)c1=O [Example 93]
- logP [1, 2]: logP = 1.97^a)

Structure (SMILES): CC(=O)NC1CCN(C(=O)Nc2cc(-n3c(=O)cc(C(F)(F)F)n(C)c3=O)c(F)cc2Cl)C1 (stereo not drawn) [Example 94]
- logP [1]: logP = 1.74^a)

Structure (SMILES): CC(=O)NC1CCN(C(=O)Nc2cc(-n3c(=O)cc(C(F)(F)F)n(C)c3=O)c(F)cc2Br)C1 (stereo not drawn) [Example 95]
- logP [1]: logP = 1.80^a)

Structure (SMILES): CCOC(=O)N1CCN(C(=O)Nc2cc(-n3c(=O)cc(C(F)(F)F)n(C)c3=O)c(F)cc2Cl)CC1 [Example 96]
- logP [1]: logP = 2.43^a)

Structure (SMILES): CCOC(=O)N1CCN(C(=O)Nc2cc(-n3c(=O)cc(C(F)(F)F)n(C)c3=O)c(F)cc2Br)CC1 [Example 97]
- logP [1]: logP = 2.47^a)

Structure (SMILES): Cn1c(C(F)(F)F)cc(=O)n(-c2cc(NC(=O)N3CCCCCC3)c(Cl)cc2F)c1=O [Example 98]
- logP [1]: logP = 3.02^a)

Structure (SMILES): Cn1c(C(F)(F)F)cc(=O)n(-c2cc(NC(=O)N3CCCCCC3)c(Br)cc2F)c1=O [Example 99]
- logP [1]: logP = 3.10^a)

Structure (SMILES): CCOC(=O)C(C)(C)ONC(=O)Nc1cc(-n2c(=O)cc(C(F)(F)F)n(C)c2=O)c(F)cc1Cl [Example 100]
- logP [1]: logP = 3.11^a)

Structure (SMILES): CCOC(=O)C(C)(C)ONC(=O)Nc1cc(-n2c(=O)cc(C(F)(F)F)n(C)c2=O)c(F)cc1Br [Example 101]
- logP [1]: logP = 3.16^a)

Structure (SMILES): Cn1c(C(F)(F)F)cc(=O)n(-c2cc(NC(=O)N3CCCS3(=O)=O)c(Cl)cc2F)c1=O [Example 102]
- logP [1]: logP = 2.38^a)

Structure (SMILES): Cn1c(C(F)(F)F)cc(=O)n(-c2cc(NC(=O)N3CCCS3(=O)=O)c(Br)cc2F)c1=O [Example 103]
- logP [1]: logP = 2.41^a)

Structure (SMILES): CCOC(=O)CONC(=O)Nc1cc(-n2c(=O)cc(C(F)(F)F)n(C)c2=O)c(F)cc1Cl [Example 104]
- logP [1]: logP = 2.58^a)

Structure (SMILES): CCOC(=O)CONC(=O)Nc1cc(-n2c(=O)cc(C(F)(F)F)n(C)c2=O)c(F)cc1Br [Example 105]
- logP [1]: logP = 2.62^a)

Structure (SMILES): C=CCN(C(=O)N(C)OC)c1cc(-n2c(=O)cc(C(F)(F)F)n(C)c2=O)c(F)cc1Cl [Example 106]
- logP [1, 2]: logP = 2.96^a)

Structure (SMILES): C#CCN(C(=O)N(C)OC)c1cc(-n2c(=O)cc(C(F)(F)F)n(C)c2=O)c(F)cc1Cl [Example 108]
- logP [1]: logP = 2.75^a)

Structure (SMILES): CON(C)C(=O)N(c1cc(-n2c(=O)cc(C(F)(F)F)n(C)c2=O)c(F)cc1Cl)S(C)(=O)=O [Example 109]
- logP [1]: logP = 2.56^a)

Structure (SMILES): CCN(C(=O)N(C)OC)c1cc(-n2c(=O)cc(C(F)(F)F)n(C)c2=O)c(F)cc1Cl [Example 111]
- logP [1]: logP = 2.80^a)

Structure (SMILES): Cn1c(C(F)(F)F)cc(=O)n(-c2cc(NC(=O)N3CCC(O)C3)c(Cl)cc2F)c1=O (stereo not drawn) [Example 113]
- logP [1]: logP = 1.72^a)

Structure (SMILES): Cn1c(C(F)(F)F)cc(=O)n(-c2cc(NC(=O)N3CCC(O)CC3)c(Cl)cc2F)c1=O [Example 117]
- logP [1]: logP = 1.77^a)

Structure (SMILES): Cn1c(C(F)(F)F)cc(=O)n(-c2cc(NC(=O)N3CCC(O)CC3)c(Br)cc2F)c1=O [Example 118]
- logP [1]: logP = 1.81^a)

Structure (SMILES): CC1CN(C(=O)Nc2cc(-n3c(=O)cc(C(F)(F)F)n(C)c3=O)c(F)cc2Cl)CC(C)O1 (stereo not drawn) [Example 119]
- logP [1]: logP = 2.50^a)

Structure (SMILES): CC1CN(C(=O)Nc2cc(-n3c(=O)cc(C(F)(F)F)n(C)c3=O)c(F)cc2Br)CC(C)O1 (stereo not drawn) [Example 120]
- logP [1]: logP = 2.55^a)

Structure (SMILES): CCOC(=O)CN(C)C(=O)Nc1cc(-n2c(=O)cc(C(F)(F)F)n(C)c2=O)c(F)cc1Cl [Example 121]
- logP [1]: logP = 2.48^a)

Structure (SMILES): CCOC(=O)CN(C)C(=O)Nc1cc(-n2c(=O)cc(C(F)(F)F)n(C)c2=O)c(F)cc1Br [Example 122]
- logP [1]: logP = 2.54^a)

Structure (SMILES): CCOC(=O)COC(=O)Nc1cc(-n2c(=O)cc(C(F)(F)F)n(C)c2=O)c(F)cc1Br [Example 125]
- logP [1]: logP = 2.79^a)

Structure (SMILES): CCOC(=O)COC(=O)Nc1cc(-n2c(=O)cc(C(F)(F)F)n(C)c2=O)c(F)cc1Cl [Example 126]
- logP [1]: logP = 2.74^a)

Structure (SMILES): CCOC(=O)C(C)OC(=O)Nc1cc(-n2c(=O)cc(C(F)(F)F)n(C)c2=O)c(F)cc1Cl (stereo not drawn) [Example 127]
- logP [1]: logP = 2.74^a)

Structure (SMILES): CCOC(=O)C1CCCN(C(=O)Nc2cc(-n3c(=O)cc(C(F)(F)F)n(C)c3=O)c(F)cc2C#N)C1 (stereo not drawn) [Example 133]
- logP [1]: logP = 2.70^a)
